Results on eleven compounds are retold here after PMC3734263, “Fatty Acid Amide Hydrolase-Dependent Generation of Antinociceptive Drug Metabolites Acting on TRPV1 in the Brain” (PLoS ONE, 2013).

Data set [1] deals with spinal serotonergic pathways. The data set can be described thus: Spinal serotonin content after lesion of descending serotonergic pathways. Format: in vivo. As to conditions: 5,7-DHT 100 µg/rat intrathecal, 7 days; control 529±34.
Data set [2] has as its system rats. The data set can be described thus: Paw pressure test, rat.
Description: The behavioural tests were performed in a quiet room and evaluated by a single investigator in a blinded manner. Treatments and/or genotypes were randomized in blocks and the number of animals in each block corresponded to the number of treatments and/or genotypes compared. […] Each animal was exposed to only one treatment.
The rats were submitted to the paw pressure test, using an Ugo Basile analgesy meter with a probe tip diameter of 1 mm (Bioseb, France). Nociceptive thresholds, expressed in grams (g), were measured by applying an increasing pressure to the right hind paw until a squeak (vocalization thresholds) was obtained (cut-off 750 g). Two consecutive stable vocalisation threshold values were first obtained (baseline).
Intrathecal injections were performed on anaesthetised rats held in one hand by the pelvic girdle. A 25 gauge 1 inch needle connected to a 25 µl Hamilton syringe was then inserted into the subarachnoidal space between lumbar vertebrae L5 and L6 until a tail flick was elicited. The syringe was held in position for few seconds after the injection of a volume of 10 µl [49]. All injections were performed under isoflurane anaesthesia (4% induction, 2% maintenance).
Data set [3] has as its system rats. The data set can be described thus: Formalin test, rat. Format: in vivo. The protocol:
(§1) The animals received an intraplantar injection of a 2.5% formalin solution (50 µl rat, 25 µl mouse) into a hind paw. The time spent biting and licking of the injected paw was monitored during the two typical phases of the nociceptive response (phase I: 0–5 min; phase II: 20–40 min in rats or 15–40 min in mice).

The format of data set [4] is in vivo, rat. Here is the method:
[…] The brain was removed from the skull and blood was collected in test tubes, containing 60 µl buffered citrate, and the tissues snap frozen in liquid nitrogen before storage at −70°C.
(§2) The whole brain was homogenized in ice-cold 10 mM Tris buffer (ml/g tissue) at pH 7.6. The buffer solution contained 1 mM EDTA, 0.3 mM ascorbic acid and 10 µM methylarachidonylfluorophosphonate (MAFP) to prevent degradation of AM404, arvanil, olvanil, anandamide and 2-arachidonoylglycerol. Aliquots (200 µl) of blood and homogenates were precipitated with 1 ml ice-cold acetone, containing AM404-D4 (5 nM) or anandamide-D8 (100 nM) as internal standard. After centrifugation at 25,200 g for 30 min at 4°C, the supernatants were collected in polypropylene tubes and vacuum evaporated. The protein content of the pellet was determined with Coomassie protein assay (Pierce; Illinois, USA), using bovine serum albumin as standard. […] Samples were analyzed on a Waters Aquity UPLC system coupled to a Sciex 5500 tandem mass spectrometer (LC-MS/MS; AB Sciex; Massachusetts, USA) or a Perkin Elmer 200 HPLC system coupled to an API 3000 tandem mass spectrometer (LC-MS-MS; Applied Biosystems/MDS-SCIEX).
Quantification of AM404, HPODA, arvanil and olvanil. Samples were analyzed on a Waters Aquity UPLC system coupled to a Sciex 5500 tandem mass spectrometer. […]

Data set [5] is described as follows: Contents of amines and lipid metabolites in blood and brain after i.p. injection in mice (LC-MS/MS). Format: in vivo, mouse. Here is the method: Twenty min after drug administration, the animals were anesthetized by CO2 (rats) or isoflurane (mice) inhalation and decapitated. The brain was removed from the skull and blood was collected in test tubes, containing 60 µl buffered citrate, and the tissues snap frozen in liquid nitrogen before storage at −70°C.
as §2
Quantification of AM404, HPODA, arvanil and olvanil. Samples were analyzed on a Waters Aquity UPLC system coupled to a Sciex 5500 tandem mass spectrometer. Sample aliquots of 5 µl were injected into an Acquity UPLC BEH C18 column (100 × 2 mm, 1.7 µm; Waters) held at 50°C. All mobile phases were water-acetonitrile gradients, containing 0.1% formic acid and using a flow rate of 400 µl/min. The acetonitrile content was initially 30%, then increased linearly to 100% over 7 min and kept at this level for 4 min, followed by an equilibration period at 30% for 2 min. The electrospray interface was operating in the positive ion mode at 550°C and the ion spray voltage was set to 5000 volts. The mass transitions (m/z) used were the following: 396.2/110.1 for AM404, 374.2/110.0 for HPODA, 400.2/114.0 for AM404-D4, 440.3/137.1 for arvanil and 418.3/137.1 for olvanil. The declustering potentials were between 96 and 130 volts and the collision energies between 25 and 41 volts.
Quantification of 4-aminophenol and HMBA. Sample aliquots of 5 µl were injected into a Hypercarb column (50 × 2.1 mm; Thermo). All mobile phases were water-acetonitrile gradients, containing 0.1% formic acid. The acetonitrile content was initially 2%, then increased linearly to […] over 5 min and then kept at 100% for 1 min, followed by an equilibration period at 2% for 1.5 min. The electrospray ion source was set at 550°C and used in the positive ion mode with an ion spray voltage of 5000. […] HMBA loses the amino group already in the source of the MS and therefore the mass transition used was 137.0/94.0. The declustering potentials were 100 and 90 volts and the collision energies 21 and 29 volts. No internal standard was used for these analyses.
The contents of the compounds were expressed either in moles or as normalized peak areas (nPA) and related to the protein content in the samples. The nPA was obtained by dividing the peak area of the analyte with the peak area for the internal standard in the same sample. The detection limits were calculated as the concentrations corresponding to three times the standard deviation of the blanks. When levels were below detection limit, numerical values of half the detection limit were used in the calculations.

A further data set deals with T1, TRPV1 (Rattus norvegicus, UniProt O35433).
T1 construct: rat mesenteric arterial segments precontracted with phenylephrine; from tissue; host or cells: rat isolated mesenteric arterial segments (Sprague-Dawley rats)
Description: TRPV1 activation assessed as nerve-mediated vasorelaxation in rat isolated mesenteric arteries. Format: cell-based. Here is the method:
TRPV1 activation was assessed indirectly on rat isolated mesenteric arteries, using nerve-mediated vasorelaxation as readout. Briefly, arterial segments (2 mm long) were suspended between two stainless steel wires in temperature-controlled tissue baths (37°C), containing aerated (95% O2 and 5% CO2) physiological salt solution (composition in mM: NaCl 119, KCl 4.6, CaCl2 1.5, MgCl2 1.2, NaHCO3 15, NaH2PO4 1.2 and D-glucose 6; pH 7.4), under a passive load of 2 mN. One of the wires was connected to a force-displacement transducer model FT03 C (Grass Instruments; Rhode Island, USA) for isometric tension recording. Vasorelaxation was studied in arterial segments submaximally contracted with phenylephrine. Increasing concentrations of AM404, arvanil, olvanil and HPODA in the absence and presence of capsazepine (3 µM) were then added cumulatively to determine concentration-response relationships. All experiments were performed in the presence of indomethacin (10 µM) and N^ω-nitro-L-arginine (300 µM) to reduce cyclooxygenase and nitric oxide synthase activity, respectively.
Data are presented as the mean ± SEM, and n indicates the number of animal tested in each group. pEC50 of the lipid metabolites indicates the negative log concentration that elicited half-maximal vasorelaxation. Mann-Whitney U test or Student’s t-test was used when two groups were compared. When multiple groups were compared, Kruskal-Wallis one-way ANOVA followed by Dunn’s multiple comparisons test was used. Data from the paw pressure test were analyzed by repeated measures two-way ANOVA followed by Sidak’s or Dunnett’s multiple comparisons test. The level of statistical significance was set at p<0.05. GraphPad Prism 6.0 software (California, USA) was used in all calculations and statistical analyses.

In data set [6] the test system is patients with postoperative pain. Also on record: method as in PMID 18843665. As to conditions: single oral dose of 1000 mg; cited from earlier work.
The test system of a further data set is mice. The data set can be described thus: Formalin test, mouse. It is filed as in vivo. As to conditions: mice. Here is the method: as §1
In the next data set the test system is human TRPV1. Also on record: method as in PMID 11033355. The note with it: HEK293 cells expressing human TRPV1, fluorometric calcium imaging; cited from earlier work.
Setting [7] is: AM251 3 mg/kg i.p., 4-aminophenol 100 mg i.p.
[8] abbreviates: PMSF 10 mg/kg s.c., 4-aminophenol 100 mg/kg i.p.
Where [9] appears, read: capsazepine 10 mg/kg i.p., 4-aminophenol 100 mg/kg.

Several values for one entry are separate records, joined by “and”; a condition that tells them apart may be missing. Equal entries are not always repeated. Where two headings read alike, the source gives them in different places.

T1 sequence (O35433 whole entry): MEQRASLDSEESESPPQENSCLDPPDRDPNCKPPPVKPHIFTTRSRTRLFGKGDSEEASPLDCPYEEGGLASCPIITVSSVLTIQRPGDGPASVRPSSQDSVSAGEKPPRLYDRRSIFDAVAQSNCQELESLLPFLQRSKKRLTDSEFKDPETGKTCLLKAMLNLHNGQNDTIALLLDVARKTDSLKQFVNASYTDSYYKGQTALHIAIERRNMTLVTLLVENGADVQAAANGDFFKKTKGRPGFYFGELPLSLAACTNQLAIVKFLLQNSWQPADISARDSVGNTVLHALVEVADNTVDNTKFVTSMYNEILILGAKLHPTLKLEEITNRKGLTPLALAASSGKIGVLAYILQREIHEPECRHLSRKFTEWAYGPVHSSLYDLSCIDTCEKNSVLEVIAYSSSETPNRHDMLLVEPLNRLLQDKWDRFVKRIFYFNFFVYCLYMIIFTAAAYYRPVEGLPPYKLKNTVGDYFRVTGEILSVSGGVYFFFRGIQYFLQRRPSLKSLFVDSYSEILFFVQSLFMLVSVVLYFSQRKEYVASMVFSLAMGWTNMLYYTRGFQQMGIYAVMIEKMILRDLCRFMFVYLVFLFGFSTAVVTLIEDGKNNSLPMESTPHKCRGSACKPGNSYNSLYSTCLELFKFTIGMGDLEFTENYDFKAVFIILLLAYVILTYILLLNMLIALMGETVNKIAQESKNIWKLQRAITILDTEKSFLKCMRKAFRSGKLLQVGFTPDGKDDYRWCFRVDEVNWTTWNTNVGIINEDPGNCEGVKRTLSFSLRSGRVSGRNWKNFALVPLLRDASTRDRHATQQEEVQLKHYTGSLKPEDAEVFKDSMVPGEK

In turn, `NCCc1c[nH]c2c(O)cc(O)cc12` [5,7-DHT, 5,7-dihydroxytryptamine] had a spinal serotonin content in data set [1] of 359±38 ng/g tissue wet weight. In addition, the “effect on antinociceptive effect of 4-aminophenol, rat paw pressure test” value (“effect … rat paw pressure test” for short) in the data set with rats [2] (5,7-DHT 100 µg/rat intrathecal, 7 days before test, 4-aminophenol 100 mg/kg i.p.) is “inhibited the antinociceptive effect”.
With `Cc1c(C(=O)NN2CCCCC2)nn(-c2ccc(Cl)cc2Cl)c1-c1ccc(I)cc1` [AM251, N-(piperidin-1-yl)-5-(4-iodophenyl)-1-(2,4-dichlorophenyl)-4-methyl-1H-pyrazole-3-carboxamide], the “effect on antinociceptive effect of 4-aminophenol, rat formalin test” value (“effect … rat formalin test” for short) with rats [3] (setting [7]) is “prevented the antinociceptive effect”. Besides, the “effect … rat paw pressure test” value in the data set on rats [2] (setting [7]) is reported as “prevented the antinociceptive effect”.
For the compound `CCCCC/C=C\C/C=C\C/C=C\C/C=C\CCCC(=O)Nc1ccc(O)cc1` [AM404, N-(4-Hydroxyphenyl)-5Z,8Z,11Z,14Z-eicosatetraenamide], the “content of AM404 in rat brain at different time points” value in data set [4] (4-aminophenol 100 mg/kg i.p., 15 min and 30 min) is on record as “Significant amounts”. Also, the “Brain AM404” value in data set [5] (20 min after 4-AP 30 mg/kg i.p., mouse) is 411 pmol/g and 411 ± 134 pmol/g; in [5] (20 min after 4-AP 100 mg/kg i.p., mouse) it was 4829 ± 1435 pmol/g. For the same compound, in data set [5] (20 min after i.p. 4-aminophenol (30 and 100 mg/kg) or HMBA (300 mg/kg)), the “brain content in FAAH−/− mice compared to FAAH+/+ littermates” value is given as “substantially reduced”. Further, the “quotient between the brain contents of lipid metabolite and its parent amine” value in data set [5] (mouse, in vivo) is given as 1∶1,500. At TRPV1, the EC50 was 31.6 nM. The “times more potent than HPODA as TRPV1 activator” value on TRPV1 (vasorelaxation readout) is listed as 3.3 times.
With `CCCCCCCC/C=C\CCCCCCCC(=O)Nc1ccc(O)cc1` [HPODA, N-(4-hydroxyphenyl)-9Z-octadecenamide], the “brain content in FAAH−/− mice compared to wild-type littermates” value in data set [5] (mouse, in vivo) is on record as “no significant difference”. Moreover, the “increase of brain content in FAAH−/− mice compared to wild-type littermates” value in data set [5] (mouse, in vivo, 20 min) is recorded as 3 fold. The EC50 at TRPV1 (capsazepine-sensitive vasorelaxation, rat mesenteric arterial segments precontracted with phenylephrine, read-out: pEC50 (negative log concentration eliciting half-maximal vasorelaxation) (converted)) was 100 nM.
As for `O=S(=O)(F)Cc1ccccc1` [PMSF, phenylmethylsulfonyl fluoride], the “effect on formation of AM404 in rat brain” value in data set [4] (PMSF 10 mg/kg s.c. pretreatment, 20 min after 4-aminophenol 100 mg/kg i.p.) was “substantially reduced the formation of AM404”. In addition, the “effect … rat formalin test” value in the data set with rats [3] (setting [8]) is recorded as “inhibited the antinociceptive effect”. The “effect … rat paw pressure test” value in the data set with rats [2] (setting [8]) is on record as “inhibited the antinociceptive effect”.
In the case of `CC(=O)Nc1ccc(O)cc1` [Paracetamol], the “NNT (numbers needed to treat) for at least 50% pain reduction over 4–6 hours” value in [6] is 3.6.
Consider `COc1ccccc1N1CCN(CCN(C(=O)C2CCCCC2)c2ccccn2)CC1.O=C(O)/C=C\C(=O)O` [WAY-100635, N-[2-[4-(2-methoxyphenyl)-1-piperazinyl]ethyl]-N-2-pyridinylcyclohexane-carboxamide maleate], for which the “effect … rat formalin test” value in the data set with rats [3] (WAY-100635 40 µg/rat intrathecal 5 min before 4-aminophenol 100 mg/kg i.p.) is “prevented”.
Turning to `Oc1cc2c(cc1O)CN(C(=S)NCCc1ccc(Cl)cc1)CCC2` [capsazepine, N-[2-(4-Chlorophenyl)ethyl]-1,3,4,5-tetrahydro-7,8-dihydroxy-2H-2-benzazepine-2-carbothioamide], the “effect … rat formalin test” value in the data set with rats [3] (setting [9]) is reported as “prevented the antinociceptive effect”. Further, the “effect on antinociceptive effect of 4-aminophenol in formalin test” value in the data set on mice (capsazepine 100 nmol into lateral ventricle 5 min prior to 4-aminophenol 30 mg/kg i.p.) was “eliminated the antinociceptive effects”. Besides, the “effect on antinociceptive effect of HMBA in formalin test” value with mice (capsazepine 100 nmol into lateral ventricle 5 min prior to HMBA 100 mg/kg i.p.) is “eliminated the antinociceptive effects”. For the same compound, in the data set on rats [2] (setting [9]), the “effect … rat paw pressure test” value was “prevented the antinociceptive effect”. Moreover, the “effect on vasorelaxation evoked by arvanil, olvanil and HPODA” value on TRPV1 (capsazepine 3 µM) is “significantly suppressed the vasorelaxation”.
As to `Cc1c(N(C)CS(=O)(=O)[O-])c(=O)n(-c2ccccc2)n1C.[Na+]` [dipyrone], the “antinociception in formalin test” value in the data set on mice (dipyrone 50 mg/kg i.p.) was “effective antinociceptive agent”.
For the compound `CCCCCCCC/C=C\CCCCCCCC(=O)NCc1ccc(O)c(OC)c1` [olvanil, N-(4-hydroxy-3-methoxybenyl)-9Z-octadecenamide], the “times more potent than AM404” value in the data set with human TRPV1 is “approximately 50 times”. The “Brain Olvanil” value in data set [5] (20 min after HMBA 300 mg/kg i.p., mouse) is 45 ± 5.6 pmol/g. In [5] (mouse, in vivo), the “brain content in FAAH−/− mice compared to FAAH+/+ littermates” value was “substantially reduced”. Further, on TRPV1, the EC50 was 0.316 nM. Further, at TRPV1 (vasorelaxation readout), the “times more potent than AM404 as TRPV1 activator” value is > 100 times and 110 times; the “times more potent than HPODA as TRPV1 activator” value was greater than 300 times.
With `CN1[C@@H]2CC[C@H]1C[C@@H](OC(=O)c1c[nH]c3ccccc13)C2` [tropisetron, Tropisetron], the “effect … rat paw pressure test” value in the data set on rats [2] (tropisetron 500 ng/rat intrathecal 5 min before 4-aminophenol 100 mg/kg i.p.) is given as “prevented”.
